Source: PubChem BioAssay (NCI)
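Cultured in 96-well plates, cells were exposed to test compound for 48 hours across five concentrations. GI50 is the concentration that inhibits growth by half. Definition used: TGI = concentration required for complete inhibition of growth.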

How the values were obtained:
Test in all cases: NCI-60 cell line screen, 48 h
[1] = test system: SK-MEL-2 melanoma
[2] = test system: HOP-62 NSCLC
[3] = test system: SF-539 CNS
[4] = test system: UACC-62 melanoma
[5] = test system: M14 melanoma
[6] = test system: RXF 393 renal
[7] = test system: DU-145 prostate
[8] = test system: SNB-19 CNS
[9] = test system: NCI/ADR-RES ovarian
[10] = test system: HOP-92 NSCLC
[11] = test system: U251 CNS
[12] = test system: ACHN renal
[13] = test system: SK-MEL-5 melanoma
[14] = test system: OVCAR-5 ovarian
[15] = test system: A549 NSCLC
[16] = test system: MDA-MB-435
[17] = test system: RPMI-8226 leukemia
[18] = test system: MDA-MB-231 breast
[19] = test system: UACC-257 melanoma
[20] = test system: NCI-H226 lung
[21] = test system: SN12C renal
[22] = test system: SK-OV-3 ovarian
[23] = test system: HT29 colon
[24] = test system: MALME-3M melanoma
[25] = test system: CAKI-1 renal
[26] = test system: BT-549 breast

SMILES: C=C(C)[C@@]12OC3(/C=C/C=C/CCCCC)O[C@@H]1[C@@H]1[C@@H]4O[C@]4(CO)[C@@H](O)[C@]4(O)C(=O)C(C)=C[C@H]4[C@@]1(O3)[C@H](C)[C@H]2OC(=O)c1ccccc1
- GI50 [1]: 1.48 µM
- TGI [1]: 3.85 µM
- GI50 [2]: < 0.01 µM
- TGI [2]: 4.84 µM
- GI50 [3]: 1.41 µM
- TGI [3]: 2.8 µM
- GI50 [4]: 3.19 µM
- TGI [4]: 6.86 µM
- GI50 [5]: 1.57 µM
- TGI [5]: 5.38 µM
- GI50 [6]: 1.87 µM
- TGI [6]: 3.49 µM
- GI50 [7]: 0.105 µM
- TGI [7]: 2.11 µM
- GI50 [8]: 1.92 µM
- TGI [8]: 3.91 µM
- GI50 [9]: 3.13 µM
- TGI [9]: 8.9 µM
- GI50 [10]: < 0.01 µM
- TGI [10]: 2.13 µM
- GI50 [11]: 1.24 µM
- TGI [11]: 2.48 µM
- GI50 [12]: 1.16 µM
- TGI [12]: 4.43 µM
- GI50 [13]: < 0.01 µM
- TGI [13]: 1.86 µM
- GI50 [14]: 4.43 µM
- TGI [14]: 8.62 µM
- GI50 [15]: < 0.01 µM
- TGI [15]: 2.04 µM
- GI50 [16]: < 0.01 µM
- TGI [16]: 4.56 µM
- GI50 [17]: 3.35 µM
- TGI [17]: > 23.2 µM
- GI50 [18]: 0.118 µM
- TGI [18]: 2.27 µM
- GI50 [19]: 8.13 µM
- TGI [19]: 21.5 µM
- GI50 [20]: 1.68 µM
- TGI [20]: 3.21 µM
- GI50 [21]: 1.49 µM
- TGI [21]: 2.83 µM
- GI50 [22]: 2.44 µM
- TGI [22]: 4.9 µM
- GI50 [23]: 1.4 µM
- TGI [23]: 2.94 µM
- GI50 [24]: 11.3 µM
- TGI [24]: 26.9 µM
- GI50 [25]: < 0.01 µM
- TGI [25]: 0.0347 µM
- GI50 [26]: 1.66 µM
- TGI [26]: 4.38 µM
